Results reported in patent US12583884B2, “3beta-(benzyloxy)-17alpha-methyl-pregn-5-en-20-one for use in the treatment of cognitive disorders” (AELIS FARMA, priority 2018, dated 2026).

Columns and labels:
[1] = tested on: HeLa cells; assay: Genotoxicity: Histone H2AX phosphorylation; conditions: 100 μM; 24 hours
Method: This study aimed at measuring Histone H2AX phosphorylation (γH2AX), which is the cellular response to DNA damage resulting in double-stranded DNA breaks. […] Etoposide at 3 μM was added as positive control of genotoxic effects. An immunofluorescence was performed on treated cells with a specific antibody against the phosphorylated histone gH2AX. Nuclei were stained with a fluorescent DNA intercaling agent. The stained cells were imaged and analyzed on the BD Pathway 855 imager®.

[2] = therapeutic dose for the treatment of obesity; Zavatti et al., 2011; EPAR; cited from earlier work
[3] = Anxiety-like behaviors in the elevated plus maze; type: in vivo, mouse
Text: The EPM apparatus was made of grey polyvinyl chloride and consisted of four elevated arms. The arms (height, 60 cm; length, 37 cm; width, 6 cm; each) were arranged in a cross-like disposition, with two opposite arms being enclosed by walls and the two other arms being open. A video camera placed on the top of the maze and connected to a tracking system allowed the automatic scoring of the locomotion of the mice in the maze. The light intensity of the maze was set at 45 lux in the open arms. One mouse was placed in the center of the EPM and was then free to explore the entire maze for 5 minutes. The time spent and the number of entries into the open arms and closed arms were measured. A decrease in the percentages of visits and/or of the time spent in open arms reflects an increase in anxiety levels.
Rimonabant was dissolved in a vehicle containing DMSO, (2%), Tween80 (2%) in injectable NaCl 0.9%. Within the same study, the effect of intraperitoneal injection of rimonabant at 10 mg/kg or of vehicle alone (10 ml/kg) was studied in the EPM in 2-month-old male C57B1/6J mice (n=10 per group). The EPM test was performed 30 minutes after rimonabant injection.

[4] = tested on: primary culture of rat hepatocytes; assay: Biliary function: bile canaliculi in primary hepatocytes
Method: (§1) The percentage of cytolysed hepatocytes over time was determined by time lapse imaging with a fluorescent cytolysis marker. The number of bile canaliculi after 48 hours of treatment was determined using a fluorescent bile salt analog.
(§2) Primary rat hepatocytes from 10-12 weeks old Wistar rats were isolated using a two-step collagenase perfusion method. After 24 hours, cells were covered with a layer of Matrigel to perform a sandwich configuration culture. […] Cells were then stained using a fluorescent bile salt analog to measure the bile canaliculi network state and the Bsep pump activity. Acetaminophen (30 mM) and Cyclosporin A (1 μM) were added as positive controls of hepatotoxicity and biliary canaliculi loss, respectively.

[5] = Body weight of lean mice, repeated administrations
Text: Mice were weighed prior to drug administration every day at the first week of treatment and then four days per week.

[6] = Food intake of standard chow in lean mice; conditions: acute 10 mg/kg ip; first 3 hours after light-off; male C57BL/6J
Method: Spontaneous intake of standard chow in mice was evaluated during the dark phase of the light-dark cycle. The amount of food eaten was measured at light-off, 3 hours and 13 hours after light-off.

[7] = tested on: primary culture of rat cortical neurons; assay: Neurotoxicity in primary culture of cortical neurons; type: cell-based; conditions: from 30 μM
Method: Cells were then followed by time-lapse imaging during 72 hours. The cells were then permeabilized. This procedure allowed to express the cytolysis over time as a percentage of the total number of cells per well.

[8] = tested on: primary culture of rat hepatocytes; assay: Hepatotoxicity in primary culture of hepatocytes; type: cell-based
Method: as §1, §2

[9] = Beyer et al., 2010; Patel and Hillard, 2006; cited from earlier work
[10] = Depressive-like behaviors in the sucrose preference test; type: in vivo, mouse
Method: Sucrose preference was tested in the home cages of the mice. A sucrose solution containing 2% of sucrose (D(+) saccharose) in tap water was poured in plastic graduated bottles (volume in each bottle, 45 ml). Identical bottles were filled with tap water. All the mice were first habituated to the bottles and to the sucrose solution. One bottle containing water and one bottle containing sucrose were placed in the hopper of each home cage. […] The mice had access to the solutions from the beginning of the dark phase, at the daily peak of food and water consumption (from 7 pm to 8.30 am). The sucrose preference test was performed seven days later. Water and sucrose solutions were presented as described for habituation except that mice had access to the solutions from 12 pm to 10 pm. At each time point, the bottles were weighed, 1 g corresponding to 1 ml. The intake volume was calculated by subtracting the initial bottle weight to the final bottle weight.
15 or 30 mg/kg or of vehicle (corn oil; 5 ml/kg) was studied in the sucrose preference test in 2-month-old male C57B1/6J mice (n=7-8 per group). Rimonabant was dissolved in a vehicle containing dimethylsulfoxide (DMSO, 2%), Tween80 (2%) in injectable NaCl 0.9%. Within the same study, the effect of repeated intraperitoneal injections of rimonabant at 10 mg/kg or of vehicle alone (10 ml/kg) was studied in the sucrose preference test in 2-month-old male C57B1/6J mice (n=8 per group).

[11] = reference ID100 for rimonabant effects = 10 mg/kg

- ID100: increase in anxiety-like behaviors ([3]; male mice): 10 mg/kg
- Effect: increase in anxiety-like behaviors (acute administration) ([3]; male mice, rimonabant 10 mg/kg): Yes
- N fold ID100: increase in anxiety-like behaviors [3, 11]: 1
- Effect on bile canaliculi ([4]; from 10 μM): suppressed bile canaliculi
- Concentration decreasing the number of canaliculi ([4]; tested 0.1 to 100 μM, 48 hours): ≥ 1000 nM
- Food intake [6]: significantly decreased food intake
- Sucrose consumption ([10]; 10 mg/kg ip once a day, 28 days): reduced by half sucrose consumption
- ID100: increase in depression-related behaviors ([10]; male mice): 10 mg/kg
- Effect: increase in depression-related behaviors (repeated administration) ([10]; male mice, rimonabant 10 mg/kg): Yes
- N fold ID100: increase in depression-related behaviors [10, 11]: 1
SMILES: Cc1c(C(=O)NN2CCCCC2)nn(-c2ccc(Cl)cc2Cl)c1-c1ccc(Cl)cc1 [rimonabant]
- Genotoxicity (DNA damage) [1]: induced DNA damage
- Doses inducing scratching, hyperactivity followed by sedation and convulsions [2]: 6 times the therapeutic dose
- Time spent and number of visits in the open arms ([3]; acute 10 mg/kg ip, 30 minutes after injection): markedly reduced the time spent and the number of visits in the open arms
- Body weight ([5]; 10 mg/kg ip once a day, 40 days): decreased body weight
- ID100: inhibition of food-intake and body weight ([5]; male mice): 10 mg/kg
- Effect: inhibition of food-intake and body weight (repeated administration) ([5]; male mice, rimonabant 10 mg/kg): Yes
- N fold ID100: inhibition of food-intake and body weight [5, 11]: 1
- Neural cell death [7]: 80%
- Hepatocyte death ([8]; from 10 μM): 100%
- Concentration increasing hepatocyte cell death ([8]; tested 0.1 to 100 μM, 48 hours): ≥ 3000 nM
- Doses with similar effects (anhedonia, anxiety-like behaviors) in rodents [9]: ≥ 1 mg/kg
